Measured values taken from patent US8952024B2, “Herbicidal pyrimidone derivatives” (E I du Pont de Nemours and Company, priority 2009, dated 2015).
Where two headings read alike, the source gives them in different places.

Legend:
Assay in all cases: Test B pre-/postemergence plant response
Type in all cases: in vivo
[1] = tested on: morningglory (Ipomoea coccinea)
Method in brief: (§1)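 Each species received compound formulated in non-phytotoxic solvent with surfactant, either at planting into a loam and sand blend or as a foliar spray once plants reached 2 to 18 cm in peat-based medium. Plants stayed in the greenhouse 13 to 15 days before visual evaluation against controls, scored 0 (no effect) to 100 (complete control).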

[2] = tested on: ragweed (common ragweed, Ambrosia elatior)
Method in brief: as §1

[3] = tested on: green foxtail (Setaria viridis); conditions: for pest or weed control at 31 g/ha: 31 g ai/ha, scale 0 to 100 (0 no effect, 100 complete control); for pest or weed control at 62 g/ha: 62 g ai/ha
Method in brief: as §1

soybean (Glycine max) = tested on: soybean (Glycine max)
Method in brief: as §1

[4] = tested on: johnsongrass (Sorghum halepense)
Method in brief: as §1

[5] = tested on: yellow nutsedge (Cyperus esculentus)
Method in brief: as §1

[6] = tested on: bermudagrass (Cynodon dactylon); conditions: for pest or weed control at 31 g/ha: 31 g ai/ha, scale 0 to 100 (0 no effect, 100 complete control)
Method in brief: as §1

[7] = tested on: giant foxtail (Setaria faberii); conditions: for pest or weed control at 31 g/ha: 31 g ai/ha, scale 0 to 100 (0 no effect, 100 complete control); for pest or weed control at 62 g/ha: 62 g ai/ha
Method in brief: as §1

[8] = Preemergence, 125 g ai/ha, 0 to 100 scale
[9] = Postemergence, 250 g ai/ha, scale 0 to 100

Cc1c(F)cccc1-n1c(-c2ccccc2)ncc(C(=O)C2=C(O)CCCC2=O)c1=O [Compound 47, 3-(3-fluoro-2-methylphenyl)-5-[(2-hydroxy-6-oxo-1-cyclohexen-1-yl)carbonyl]-2-phenyl-4(3H)-pyrimidinone]
pest or weed control at 62 g/ha ([1]; Ipomoea, post-emergence, Postemergence, 62 g ai/ha, scale 0 (no effect) to 100 (complete control), 13 to 15 days, read-out: Plant response rating, Morningglory): 80%
pest or weed control at 125 g/ha ([1]; Ipomoea, post-emergence, Postemergence, 125 g ai/ha, visual rating after 13 to 15 days, scale 0 (no effect) to 100 (complete control)): 90%
pest or weed control at 250 g/ha ([1]; Ipomoea, pre-emergence, 250 g ai/ha, Preemergence, 0 to 100 scale, read-out: Plant response rating, Morningglory): 55%
pest or weed control at 31 g/ha ([1]; Ipomoea, pre-emergence, Preemergence, 31 g ai/ha, scale 0 to 100 (0 no effect, 100 complete control), read-out: Plant response rating, Morningglory): 0%
Morningglory plant response rating [1, 8]: 0
pest or weed control at 62 g/ha ([2]; Ambrosia artemisiifolia, post-emergence, 360 h, Postemergence, 62 g ai/ha, scale 0 (no effect) to 100 (complete control), 13 to 15 days, read-out: Plant response rating, Ragweed): 90%
pest or weed control at 125 g/ha ([2]; Ambrosia artemisiifolia, post-emergence, 360 h, Postemergence, 125 g ai/ha, visual rating after 13 to 15 days, scale 0 (no effect) to 100 (complete control)): 95%
pest or weed control at 250 g/ha ([2]; Ambrosia artemisiifolia, pre-emergence, 360 h, 250 g ai/ha, Preemergence, 0 to 100 scale, read-out: Plant response rating, Ragweed): 95%
pest or weed control at 31 g/ha ([2]; Ambrosia artemisiifolia, pre-emergence, 360 h, Preemergence, 31 g ai/ha, scale 0 to 100 (0 no effect, 100 complete control), read-out: Plant response rating, Ragweed): 45%
Ragweed plant response rating [2, 8]: 90
Foxtail, Green plant response rating [3, 9]: 95
Foxtail, Green plant response rating [3, 8]: 98
pest or weed control at 31 g/ha ([3]; Setaria viridis, post-emergence, Postemergence, read-out: Plant response rating, Foxtail, Green): 80%
pest or weed control at 62 g/ha ([3]; Setaria viridis, post-emergence, Postemergence, scale 0 (no effect) to 100 (complete control), 13 to 15 days, read-out: Plant response rating, Foxtail, Green): 90%
pest or weed control at 125 g/ha ([3]; Setaria viridis, post-emergence, Postemergence, 125 g ai/ha, visual rating after 13 to 15 days, scale 0 (no effect) to 100 (complete control)): 95%
pest or weed control at 250 g/ha ([3]; Setaria viridis, pre-emergence, 250 g ai/ha, Preemergence, 0 to 100 scale, read-out: Plant response rating, Foxtail, Green): 98%
pest or weed control at 31 g/ha ([3]; Setaria viridis, pre-emergence, Preemergence, read-out: Plant response rating, Foxtail, Green): 65%
pest or weed control at 62 g/ha ([3]; Setaria viridis, pre-emergence, Preemergence, scale 0 to 100, 0 no effect, 100 complete control, read-out: Plant response rating, Foxtail, Green): 80%
plant injury at 62 g/ha (soybean (Glycine max); Glycine max, post-emergence, Postemergence, 62 g ai/ha, scale 0 (no effect) to 100 (complete control), 13 to 15 days, read-out: Plant response rating, Soybean): 95%
plant injury at 125 g/ha (soybean (Glycine max); Glycine max, post-emergence, Postemergence, 125 g ai/ha, visual rating after 13 to 15 days, scale 0 (no effect) to 100 (complete control)): 98%
plant injury at 250 g/ha (soybean (Glycine max); Glycine max, pre-emergence, 250 g ai/ha, Preemergence, 0 to 100 scale, read-out: Plant response rating, Soybean): 0%
plant injury at 31 g/ha (soybean (Glycine max); Glycine max, pre-emergence, Preemergence, 31 g ai/ha, scale 0 to 100 (0 no effect, 100 complete control), read-out: Plant response rating, Soybean): 0%
Soybean plant response rating (soybean (Glycine max); [8]): 0
Johnsongrass plant response rating [4, 8]: 80
pest or weed control at 125 g/ha ([4]; Sorghum halepense, post-emergence, Postemergence, 125 g ai/ha, visual rating after 13 to 15 days, scale 0 (no effect) to 100 (complete control)): 98%
pest or weed control at 250 g/ha ([4]; Sorghum halepense, pre-emergence, 250 g ai/ha, Preemergence, 0 to 100 scale, read-out: Plant response rating, Johnsongrass): 100%
pest or weed control at 31 g/ha ([4]; Sorghum halepense, pre-emergence, Preemergence, 31 g ai/ha, scale 0 to 100 (0 no effect, 100 complete control), read-out: Plant response rating, Johnsongrass): 65%
pest or weed control at 62 g/ha ([4]; Sorghum halepense, pre-emergence, Preemergence, 62 g ai/ha, scale 0 to 100, 0 no effect, 100 complete control, read-out: Plant response rating, Johnsongrass): 75%
pest or weed control at 62 g/ha ([5]; Cyperus, post-emergence, Postemergence, 62 g ai/ha, scale 0 (no effect) to 100 (complete control), 13 to 15 days, read-out: Plant response rating, Nutsedge, Yellow): 65%
pest or weed control at 125 g/ha ([5]; Cyperus, post-emergence, Postemergence, 125 g ai/ha, visual rating after 13 to 15 days, scale 0 (no effect) to 100 (complete control)): 70%
pest or weed control at 250 g/ha ([5]; Cyperus, pre-emergence, 250 g ai/ha, Preemergence, 0 to 100 scale, read-out: Plant response rating, Nutsedge, Yellow): 90%
pest or weed control at 31 g/ha ([5]; Cyperus, pre-emergence, Preemergence, 31 g ai/ha, scale 0 to 100 (0 no effect, 100 complete control), read-out: Plant response rating, Nutsedge, Yellow): 45%
Nutsedge, Yellow plant response rating [5, 8]: 80
pest or weed control at 31 g/ha ([6]; Cynodon dactylon, post-emergence, Postemergence, read-out: Plant response rating, Bermudagrass): 85%
pest or weed control at 125 g/ha ([6]; Cynodon dactylon, post-emergence, Postemergence, 125 g ai/ha, visual rating after 13 to 15 days, scale 0 (no effect) to 100 (complete control)): 98%
pest or weed control at 250 g/ha ([6]; Cynodon dactylon, pre-emergence, 250 g ai/ha, Preemergence, 0 to 100 scale, read-out: Plant response rating, Bermudagrass): 100%
pest or weed control at 31 g/ha ([6]; Cynodon dactylon, pre-emergence, Preemergence, read-out: Plant response rating, Bermudagrass): 100%
pest or weed control at 62 g/ha ([6]; Cynodon dactylon, pre-emergence, Preemergence, 62 g ai/ha, scale 0 to 100, 0 no effect, 100 complete control, read-out: Plant response rating, Bermudagrass): 100%
Bermudagrass plant response rating [6, 8]: 100
Foxtail, Giant plant response rating [7, 9]: 98
Foxtail, Giant plant response rating [7, 8]: 85
pest or weed control at 31 g/ha ([7]; Setaria faberi, post-emergence, Postemergence, read-out: Plant response rating, Foxtail, Giant): 90%
pest or weed control at 62 g/ha ([7]; Setaria faberi, post-emergence, Postemergence, scale 0 (no effect) to 100 (complete control), 13 to 15 days, read-out: Plant response rating, Foxtail, Giant): 98%
pest or weed control at 125 g/ha ([7]; Setaria faberi, post-emergence, Postemergence, 125 g ai/ha, visual rating after 13 to 15 days, scale 0 (no effect) to 100 (complete control)): 98%
pest or weed control at 250 g/ha ([7]; Setaria faberi, pre-emergence, 250 g ai/ha, Preemergence, 0 to 100 scale, read-out: Plant response rating, Foxtail, Giant): 100%
pest or weed control at 31 g/ha ([7]; Setaria faberi, pre-emergence, Preemergence, read-out: Plant response rating, Foxtail, Giant): 45%
pest or weed control at 62 g/ha ([7]; Setaria faberi, pre-emergence, Preemergence, scale 0 to 100, 0 no effect, 100 complete control, read-out: Plant response rating, Foxtail, Giant): 70%
